{"source": "patent US11419865B2", "about": "“Method for inducing a sustained immune response” (Cytocom Inc., priority 2016, dated 2022)", "key": {"[1]": {"test_system": "multiple sclerosis (MS) patients", "assay": "double-masked, placebo-controlled crossover pilot trial on quality of life in multiple sclerosis, 80 patients", "type": "in vivo, human", "conditions": "4.5 mg nightly", "text": "RESULTS: Eighty subjects with clinically definite MS were enrolled, and 60 subjects completed the trial. Ten withdrew before completing the first trial period: 8 for personal reasons, 1 for a non-MS-related adverse event, and 1 for perceived benefit. Database management errors occurred in 4 other subjects, and quality of life surveys were incomplete in 6 subjects for unknown reasons. […] LDN was associated with significant improvement on the following mental health quality of life measures: a 3.3-point improvement on the Mental Component Summary score of the Short Form-36 General Health Survey (p=0.04), a 6-point improvement on the Mental Health Inventory (p<0.01), a 1.6-point improvement on the Pain Effects Scale (p=0.04), and a 2.4-point improvement on the Perceived Deficits Questionnaire (p=0.05). […] Further studies with LDN in MS are warranted."}, "HIV [2]": {"test_system": "HIV", "assay": "naltrexone as adjunct therapy, 50 HIV/AIDS patients in Africa with standard of care", "type": "in vivo, human", "text": "Naltrexone as an adjunct therapy with HIV/AIDS patients. […] HIV disease is associated with a new constellation of problems, generally referred to as “non-AIDS morbidity”, and, in the popular press, “premature aging. […] at risk for developing a number of non-AIDS conditions, including cardiovascular disease, cancer, kidney disease, liver disease, osteopenia/osteoporosis and neurocognitive disease (collectively referred to as “serious non-AIDS events”). Malignancies associated with infections such as human papilloma virus (including uro-genital and head and neck cancers), Epstein Barr Virus (including Hodgkins disease), and hepatitis B and C (hepatocellular carcinoma), are also relatively common in HIV-infected adult. […] Subtle elevations in many of these biomarkers are associated with dramatic increases in the risk of subsequent disease, including all-cause mortality For example, as compared to a well-matched uninfected population, treated HIV-infected adults have approximately 50 to 100% higher levels of the inflammatory cytokine interleukin-6 (IL-6)^(32). […] Risk factors for impaired CD4 T-cell recovery include low pre-treatment CD4+ T cell count nadir, co-infection with other viruses such as hepatitis C, older age, and perhaps viral factors (24). […]"}, "HIV [3]": {"test_system": "HIV", "conditions": "3 mg compounded, with ART, cited from earlier work"}, "AIDS": {"test_system": "AIDS", "conditions": "3.0 mg daily at bedtime, 12 weeks, cited from earlier work"}, "Hashimoto's patients": {"test_system": "Hashimoto's patients", "assay": "Hashimoto's thyroiditis case reports", "procedure": "Patient was taking L-thyroxine and pain medications and 75 mg Zoloft.\nPatients was taking Synthroid 150 mcg, Compounded T3 25 mcg, Progesterone 150 mg, Plus lots of supplements like Magnesium, D3, Methyl B12, Methyl folate, Selenium, E, Amino Restore, CLA, NAC, DE, Adaptacin."}, "[4]": {"test_system": "A549 (lung) and HCT116 (CRC)", "assay": "continuous 48 h exposure, lung and CRC cells"}, "cancer patients": {"test_system": "cancer patients", "conditions": "cited from earlier work"}, "[5]": {"test_system": "diabetic neuropathy patient", "assay": "diabetic neuropathy case report", "type": "in vivo, human", "text": "person, diagnosed with diabetic neuropathy for the last six years was prescribed one or two tablets every four to six hours as needed for pain. Patient takes between 4 to 8 tablets a day."}}, "note": "Read-outs that look alike come from different tables or passages of the source.", "data": [{"compound": "O=C1CC[C@@]2(O)[C@H]3Cc4ccc(O)c5c4[C@@]2(CCN3CC2CC2)[C@H]1O5", "note": "[Immediate release naltrexone, naltrexone]", "values": [{"measurement": "tolerability and serious adverse events", "setting": "[1]", "result": "well tolerated, and serious adverse events did not occur"}, {"measurement": "improvement on the Mental Component Summary score of the Short Form-36 General Health Survey", "setting": "[1]; 8 weeks, p=0.04", "result": 3.3, "unit": "point"}, {"measurement": "inflammatory cytokine and Th1/Th2 balance", "setting": "HIV [2]; adjunct to standard of care (ART)", "result": "Secreased inflammatory cytokine and a shift from Th1 (pro-inflammatory) to Th2 (anti-inflammatory)"}, {"measurement": "opportunistic infection and quality of life", "setting": "HIV [2]; adjunct to standard of care, long term", "result": "reduction in opportunistic infection and a higher quality of live"}, {"measurement": "improvement in CD4 count vs control group", "setting": "HIV [3]; at 6 months, p=0.041, 51 vs 49 subjects", "result": "significantly greater than the control group"}, {"measurement": "improvement in CD4 count vs control group", "setting": "HIV [3]; at 9 months, p=0.067", "result": "marginally"}, {"measurement": "Improvement in CD4%", "setting": "HIV [3]; throughout treatment", "result": "not statistically significant"}, {"measurement": "lymphocyte mitogen responses", "setting": "AIDS", "result": "declined on placebo and not on Immediate release naltrexone"}, {"measurement": "pathologically elevated levels of acid-labile alpha interferon", "setting": "AIDS", "result": "declined significantly"}, {"measurement": "incidence of opportunistic infections (patients)", "setting": "AIDS; placebo 5 out of 16 (31%)", "result": "0 of the 22"}, {"measurement": "lab work, person, Hashimoto's", "setting": "Hashimoto's patients; 1.5 mg", "result": "Latest lab work was normal in all areas"}, {"measurement": "side effect, person, Hashimoto Thyroiditis", "setting": "Hashimoto's patients; 3 mg in morning and 1 mg at night", "result": "strange dreams"}, {"measurement": "TPO levels, person, Hashimoto's", "setting": "Hashimoto's patients; 4.5 mg with T3/T4 capsules from August 2011, initial 350", "result": "returned to normal"}, {"measurement": "TgAb, person, Hashimoto's", "setting": "Hashimoto's patients; titrated 1.5, 3, 4.5 mg, from 77", "result": "< 1"}, {"measurement": "effect on A549 and HCT116", "setting": "[4]", "result": "no effect"}, {"measurement": "disease course, person, adenocarcinoma of the pancreas with liver metastases", "setting": "cancer patients; 4.5 mg once per day at bedtime with i.v. and oral ALA, selenium, silymarin, diet", "result": "comparatively stable disease for more than a 3-year period and an improved quality of life"}, {"measurement": "follow-up status, person, Follicular Lymphoma", "setting": "cancer patients; 2007 report", "result": "remains asymptomatic from their disease, 1 year after their last CT/PET imaging"}, {"measurement": "disease outcome, person, Follicular Lymphoma", "setting": "cancer patients; daily in the evening, after 6 months, not compliant with diet, supplement, ALA", "result": "clinical and radiological remission"}, {"measurement": "pain scores NRS (out of 10), person one, CRPS and EDS", "setting": "CRPS patients; 3 mg once a day, then 4.5 mg per day, from (7-10)/10", "result": "3-5"}, {"measurement": "allodynia and sensitivity, person one, CRPS", "setting": "CRPS patients; 3 mg then 4.5 mg per day", "result": "decrease in allodynia, as well as a decrease in sensitivity to touch and temperature change"}, {"measurement": "dystonia, initial treatment, person one, CRPS", "setting": "CRPS patients; 3 mg then 4.5 mg per day, before surgery", "result": "no effect on the dystonia"}, {"measurement": "side effects, person three, CRPS", "setting": "CRPS patients; 4.5 mg per day", "result": "No side effects"}, {"measurement": "average pain on the Numeric Rating Scale (NRS), person three, CRPS", "setting": "CRPS patients; 4.5 mg per day at night, before 8 to 10", "result": "5 to 6"}, {"measurement": "requirements for intravenous ketamine infusions, person three, CRPS", "setting": "CRPS patients; 4.5 mg per day, by March of 2012, 6 week intervals", "result": "not as frequent"}, {"measurement": "walking, person three, CRPS", "setting": "CRPS patients; 4.5 mg per day, cane used continuously since 2006", "result": "able to walk without a cane"}, {"measurement": "dystonic spasms, person three, CRPS", "setting": "CRPS patients; 4.5 mg per day, within 2 months", "result": "dystonic spasms discontinued"}, {"measurement": "post-operative pain NRS (out of 10), person one, CRPS", "setting": "CRPS patients; 3 weeks after resuming drug", "result": "4-6"}, {"measurement": "side effects, person one, CRPS", "setting": "CRPS patients; 18 months", "result": "No side effects"}, {"measurement": "fixed dystonia at cast removal, person one, CRPS", "setting": "CRPS patients; after ankle reinforcement surgery, on drug", "result": "remission of the leg's fixed dystonia"}, {"measurement": "CRPS symptoms, person one", "setting": "CRPS patients; maintained for 18 months", "result": "CRPS symptoms have resolved completely"}, {"measurement": "additional benefits, diabetic neuropathy", "setting": "[5]; 4.5 mg", "result": "resolutions of RLS"}, {"measurement": "pain medication use, diabetic neuropathy", "setting": "[5]; 4.5 mg from March of 2015, within 3 days", "result": "cut down the number of pills in half"}, {"measurement": "pain medication use, diabetic neuropathy", "setting": "[5]; 4.5 mg, within 8 weeks", "result": "stopped all pain medication"}]}]}
